Measured values as given in patent publication US7875607B2, “7,8-bicycloakyl-chroman derivatives” (Ampere Life Sciences, Inc., priority 2004, dated 2011).

Assays:
[1] = target: T1, human recombinant 5-lipoxygenase (Homo sapiens, UniProt P09917); assay: 5-Lipoxygenase enzyme assay; assay type: biochemical; conditions: 70 μM arachidonic acid, pH 7.4
T1 construct: purchased Cayman 60402
T1 sequence (P09917 1-674): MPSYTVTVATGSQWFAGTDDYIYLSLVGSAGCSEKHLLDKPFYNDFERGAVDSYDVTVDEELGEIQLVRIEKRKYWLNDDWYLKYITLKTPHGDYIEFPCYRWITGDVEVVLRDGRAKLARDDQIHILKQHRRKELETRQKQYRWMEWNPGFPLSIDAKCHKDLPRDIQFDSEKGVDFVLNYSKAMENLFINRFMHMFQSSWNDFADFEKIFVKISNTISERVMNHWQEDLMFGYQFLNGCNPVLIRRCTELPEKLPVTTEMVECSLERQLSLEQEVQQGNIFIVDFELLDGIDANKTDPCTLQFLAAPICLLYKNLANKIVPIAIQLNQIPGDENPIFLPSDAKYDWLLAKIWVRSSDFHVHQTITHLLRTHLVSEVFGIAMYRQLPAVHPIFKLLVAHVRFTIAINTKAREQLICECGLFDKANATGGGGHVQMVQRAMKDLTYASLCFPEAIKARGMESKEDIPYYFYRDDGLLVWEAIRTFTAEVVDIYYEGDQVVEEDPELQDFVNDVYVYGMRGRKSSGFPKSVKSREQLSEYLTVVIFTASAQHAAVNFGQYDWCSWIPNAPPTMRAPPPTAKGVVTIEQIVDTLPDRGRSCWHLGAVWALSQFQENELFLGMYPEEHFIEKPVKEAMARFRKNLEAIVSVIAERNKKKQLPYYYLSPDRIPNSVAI
Description: This procedure was used for measuring the enzymatic activity of human recombinant 5-lipoxygenase using a […] method based on the ferric oxidation of xylenol orange.
Human recombinant 5-lipoxygenase (Cayman Cat # 60402) was used in this assay. The test compound and/or vehicle was added to 0.5U 5-lipoxygenase in 50 mM Tris-HCl buffer, pH 7.4. The reaction was initiated by addition of 70 μM arachidonic acid in Tris-HCl buffer, pH 7.4, and terminated after a 10 minute incubation at room temperature by addition of FOX reagent (25 mM sulphuric acid, 100 μM xylenol orange, 100 μM iron (II) sulphate, methanol:water 9:1). The yellow color of acidified xylenol orange was converted to a blue color by the lipid hydroperoxide-mediated oxidation of Fe^2+ ions and the interaction of the resulting Fe^3+ ions with the dye. The complex was allowed to form during a 1 hour incubation at room temperature with shaking. Absorbance of the Fe^3+ complex was then measured at […] using a spectrophotometer.
Negative controls contained enzyme during the incubation step but substrate was not added until after the FOX reagent.
Compounds were screened at 5 concentrations in triplicate starting at 10 μM

[2] = system: dopaminergic neuronal cell line; assay: High glutamate-induced oxidative stress assay (HGOS); assay type: cell-based; conditions: Mus musculus; 30 mM glutamate, 16 hrs; read-out: EC50, protection against HGOS cell injury and cell death
Text: Protection against redox stress can be further evaluated in cell culture using high glutamate induced oxidative stress (HGOS) in mouse dopaminergic cell lines. The cytotoxic effect of glutamate is not due to excitotoxicity, as this cell line is devoid of inotropic glutamate receptors. Rather, the glutamate-induced toxicity of dopaminergic cells is associated with an inhibition of cystine transport which subsequently leads to depletion of intracellular glutathione (GSH) levels (Murphy T. H., et al. Neuron 2, 1547-1558, 1989), activation of neuronal 12-lipoxygenase (Li, Y. et al., Neuron 19, 453-463, 1997), increased ROS production (Tan S. et al., J. Cell Biol. 141, 1423-1432, 1998) and elevated intracellular Ca^2+ (Li, Y. et al., see supra). Some molecules were measured for their ability to protect cells against glutamate-induced stress and the assay is detailed in Examples.
This procedure was used to induce high glutamate-induced oxidative stress (HGOS) in a dopaminergic neuronal cell line. Using this assay the potency and efficacy of test articles against HGOS neuronal cell injury and cell death was established in a high throughput manner.
The cells were seeded into 96-well plates at a density of 2000 per well and left to grow for 72 hours in a 33° C. incubator with 5% CO2 in air atmosphere. The passage number of the cells for each assay experiment were no later than p11 in order to minimize experimental variation.
All compounds were dissolved in DMEM-No Glu containing 1 mM glucose, 30 mM glutamate and 1×Pen/Strep. DMEM-No Glu with 1 mM glucose and 1×P/S was used as the negative control, DMEM-No Glucose with 1 mM glucose, […] was used as a positive control and 100 μM Glutathione was added to the positive control as a standard. All of the procedures for this involving the making and dilution of compounds were performed using aseptic conditions and with minimal light.
The plates were removed from the incubator and examined under the microscope for morphological appearance and density. Using an aseptic technique and an 8-channel aspirator the media was carefully removed from the cells and replaced with 200 μl of 1×HBSS. This was done as quickly as possible to prevent the cells drying out. The plates were then placed in the humidified 37° C. incubators of the Biomek 2000 Side Loader. Four plates were washed at a time so as to minimize the time that the cells were sitting in 1×HBSS prior to addition of the compound test solution.
The Beckman Biomek workstations were used to load the compounds and controls from the mother plates onto the cell plates that were prewashed with HBSS under sterile conditions. The plates were incubated in the upper HTS incubator at 37° C. in 5% CO2 for exactly 16 hrs. The following day, using the Beckman Biomek workstations, the plates were removed from the incubator. Using Cell Tracker Addition, the compounds were removed from the plates, washed once with […] of pre-warmed 1×HBSS and then 100 μL of 5 μM Cell Tracker Green was added to each well. The plates were incubated at 37° C. for 30 min to allow the dye to enter the cell and be cleaved by the esterases. After washing the cells twice with prewarmed 1×HBSS, the plates were read with the 485 excitation; 538 emission filter pair on a Fluoroskan.

[3] = system: LTB4 production in heparinized whole blood; assay: Inhibition of LTB4 production in blood; assay type: cell-based, rat or mouse; conditions: 20 μM A23187, read-out: EC50, protection against LTB4
Description: The blood was collected in heparinized tubes or syringes to prevent clotting. Heparin was at 20 USP U/ml. About 3-5 ml of blood was collected per rat and about 0.5-0.75 ml per mouse. This assay required 200 μl/data point, therefore a 96 well plate requires 20 ml.
The Calcium ionophore A23187 was prepared as a 10 mM stock solution in DMSO and the test agent is prepared in DMSO so that <1 μl DMSO will be added to the well
200 μl blood per well were added in a round bottom 96 well clear plastic 96 well plate followed by the test agent. After 10 minutes incubation at 37° C., 5 μl of Calcium ionophore A23187 for a final concentration of 20 μM were added and mixed, and further incubated for 30 min. After 1000×g centrifugation to pellet blood cells, 20 μl plasma was carefully removed.
20 μl plasma were added to 80 μl methanol to precipitate protein and mixed. This was further incubated 10 min. at room temperature and centrifuged at 1000×g to pellet protein.
Following manufacturer's instructions, the commercially available EIA kit was used to subsequently measure the LTB4 production in the samples. The LTB4 levels produced in the vehicle control sample were then compared to those in which the test compound had been added. From this a percent inhibition of LTB4 production by each concentration of test compound was calculated and the IC50 for inhibition of LTB4 production for each test compound was determined.

[4] = system: LTB4 release from MPRO cell line; assay: LTB4-cell assay; assay type: cell-based; conditions: Mus musculus; differentiated MPRO cells, 1 μM A23187, 1 hour; read-out: EC50, inhibition of LTB4
Description: This procedure was used for measuring the release of the leukotriene LTB4 from a neutrophil cell line using a competitive ELISA technique.
A mouse promyelocytic cell line (MPRO) was used in this assay. These cells are committed immature neutrophils that can be differentiated into mature neutrophils by treatment with 10 μM all-trans retinoic acid for 72 hours
Following 72 hours of differentiation, cells were stimulated with 1 μM of a calcium ionophore (A23187) in the presence or absence of test compound or vehicle for 1 hour at 37° C. After this time, supernatant was removed from the cells and the LTB4 levels were determined following manufacturer's instructions, using a Leukotriene B4 EIA kit from Cayman (Cat # 520111)
The negative controls were media samples from differentiated but unstimulated cells.
The compounds were screened at 5 concentrations in quadruplicate starting at 10 μM

For `COC12CCC(CC1)c1c(O)cc3c(c12)OC(C)(C)CC3` [10-Methoxy-2,2-dimethyl-3,4,7,8,9,10-hexahydro-7,10-ethano-2H-benzo[h]chromen-6-ol], the IC50 [1] was ≤ 5000 nM.
In the case of `CC(=O)Oc1c(CC=C(C)C)c2c(c3c1C1CCC3C1)OC(C)(C)C=C2` (stereo not drawn) [Acetic acid 2,2-dimethyl-5-(3-methyl-but-2-enyl)-7,8,9,10-tetrahydro-7,10-methano-2H-benzo[h]chromen-6-yl ester], the EC50 [2] is reported as ≤ 1000 nM.
For `Cc1c(O)c2c(c3c1CCC(C)(CCCCl)O3)C1CCC2CC1` (stereo not drawn) [2-(3-Chloro-propyl)-2,5-dimethyl-3,4,7,8,9,10-hexahydro-7,10-ethano-2H-benzo[h]chromen-6-ol], the IC50 [1] was ≤ 5000 nM, the EC50 [3] was ≤ 10000 nM and the EC50 [2] was ≤ 1000 nM.
`CC(C)=CCc1c(O)c2c(c3c1C=CC(C)(C)O3)C1CCC2C1` (stereo not drawn) [2,2-Dimethyl-5-(3-methyl-but-2-enyl)-7,8,9,10-tetrahydro-7,10-methano-2H-benzo[h]chromen-6-ol] was tested, and the EC50 [2] was ≤ 1000 nM.
For `CC(C)=CCc1c(O)c2c(c3c1CCC(C)(C)O3)C1CCC2CC1` [2,2-Dimethyl-5-(3-methyl-but-2-enyl)-3,4,7,8,9,10-hexahydro-7,10-ethano-2H-benzo[h]chromen-6-ol], the EC50 [2] was ≤ 1000 nM.
With `CC1=NN(c2ccc(C(=O)O)cc2)C(=O)C1=Cc1c(O)c2c(c3c1CCC(C)(C)O3)C1CCC2C1` (stereo not drawn) [4-[4-(6-Hydroxy-2,2-dimethyl-3,4,7,8,9,10-hexahydro-7,10-methano-2H-benzo[h]chromen-5-ylmethylene)-3-methyl-5-oxo-4,5-dihydro-pyrazol-1-yl]-benzoic acid] the EC50 [2] was ≤ 1000 nM.
With `CC1(C)CCc2c(CO)c(O)c3c(c2O1)C1CCC3C1` (stereo not drawn) [5-Hydroxymethyl-2,2-dimethyl-3,4,7,8,9,10-hexahydro-7,10-methano-2H-benzo[h]chromen-6-ol] the EC50 [2] was ≤ 1000 nM.
In the case of `COP(=O)(CCCC1(C)CCc2cc(O)c3c(c2O1)C1CCC3C1)OC` (stereo not drawn) [[3-(6-Hydroxy-2-methyl-3,4,7,8,9,10-hexahydro-7,10-methano-2H-benzo[h]chromen-2-yl)-propyl]-phosphonic Acid Dimethyl Ester], the EC50 [3] is reported as ≤ 10000 nM.
In the case of `CCCC1=NN(C)C(=O)/C1=C\c1c(O)c2c(c3c1CCC(C)(C)O3)C1CCC2C1` (stereo not drawn) [4-(6-Hydroxy-2,2-dimethyl-3,4,7,8,9,10-hexahydro-7,10-methano-2H-benzo[h]chromen-5-ylmethylene)-2-methyl-5-propyl-2,4-dihydro-pyrazol-3-one], the EC50 [3] is reported as ≤ 10000 nM and the EC50 [2] is reported as ≤ 1000 nM.
With `COC(=O)CCC1(C)CCc2cc(O)c3c(c2O1)C1CCC3CC1` (stereo not drawn) [3-(6-Hydroxy-2-methyl-3,4,7,8,9,10-hexahydro-7,10-ethano-2H-benzo[h]chromen-2-yl)-propionic acid methyl ester] the IC50 [1] was ≤ 5000 nM.
For `CC1(C)CCc2c(C=C3C(=O)Oc4ccc(O)cc43)c(O)c3c(c2O1)C1CCC3C1` (stereo not drawn) [5-Hydroxy-3-(6-hydroxy-2,2-dimethyl-3,4,7,8,9,10-hexahydro-7,10-methano-2H-benzo[h]chromen-5-ylmethylene)-3H-benzofuran-2-one], the EC50 [2] was ≤ 1000 nM.
With `COC(=O)CCC1(C)CCc2cc(O)c3c(c2O1)C1CCCC3CC1` (stereo not drawn) [3-(6-Hydroxy-2-methyl-3,4,7,8,9,10-hexahydro-7,10-propano-2H-benzo[h]chromen-2-yl)-propionic Acid Methyl Ester] the IC50 [1] was ≤ 5000 nM and the EC50 [2] was ≤ 1000 nM.
`CC1(CCCSc2nc3ccccc3s2)CCc2cc(O)c3c(c2O1)C1CCC3CC1` (stereo not drawn) [2-[3-(Benzothiazol-2-ylsulfanyl)-propyl]-2-methyl-3,4,7,8,9,10-hexahydro-7,10-ethano-2H-benzo[h]chromen-6-ol] was tested, and the EC50 [2] was ≤ 1000 nM.
In the case of `CC1(C)CCc2c(CC=C3CCCCC3)c(O)c3c(c2O1)C1CCC3CC1` [5-(2-Cyclohexylidene-ethyl)-2,2-dimethyl-3,4,7,8,9,10-hexahydro-7,10-ethano-2H-benzo[h]chromen-6-ol], the EC50 [2] is reported as ≤ 1000 nM.
With `CC1(CCC(=O)OCc2ccccc2)CCc2cc(O)c3c(c2O1)C1CCC3CC1` (stereo not drawn) [3-(6-Hydroxy-2-methyl-3,4,7,8,9,10-hexahydro-7,10-ethano-2H-benzo[h]chromen-2-yl)-propionic acid benzyl ester] the IC50 [1] was ≤ 5000 nM.
`CC(=O)Oc1c(CCC(C)C)c2c(c3c1C1CCC3C1)OC(C)(C)CC2` (stereo not drawn) [Acetic acid 2,2-dimethyl-5-(3-methyl-butyl)-3,4,7,8,9,10-hexahydro-7,10-methano-2H-benzo[h]chromen-6-yl ester] was tested, and the EC50 [2] was ≤ 1000 nM.
With `CN(C)CC(=O)Oc1cc2c(c3c1C1CCC3CC1)OC(C)(C)CC2` [Dimethylamino-acetic acid 2,2-dimethyl-3,4,7,8,9,10-hexahydro-7,10-ethano-2H-benzo[h]chromen-6-yl ester] the EC50 [4] was ≤ 5000 nM.
